Results published in patent publication US20130183239A1, “ISOTOPIC CARBON CHOLINE ANALOGS” (IMPERIAL COLLEGE, priority 2010, published 2013).
Read-outs that look alike come from different tables or passages of the source.

Columns and labels:
[1] = mouse, in vivo
Experimental: (§1) Radiolabeled metabolites from plasma and tissues were quantified using a method adapted from Smith G, Zhao Y, Leyton J, et al. Radiosynthesis and pre-clinical evaluation of [(18)F]fluoro-[1,2-(2)H(4)]choline. Nucl Med Biol. 2011; 38:39-51. Briefly, tumor-bearing mice under terminal anaesthesia were administered a bolus i.v. injection of one of the following radiotracers: ^11C-choline, ^11C-D4-choline (˜18.5 MBq) or ^18F-D4-choline (˜3.7 MBq), and sacrificed by exsanguination via cardiac puncture at 2, 15, 30 or 60 min post radiotracer injection. For automated radiosynthesis methodology, see Example 22. Tumor, kidney and liver samples were immediately snap-frozen in liquid nitrogen. Aliquots of heparinized blood were rapidly centrifuged (14000 g, 5 min, 4° C.) to obtain plasma. Plasma samples were subsequently snap-frozen in liquid nitrogen and kept on dry ice prior to analysis.
(§2) For analysis, samples were thawed and kept at 4° C. immediately before use. To ice cold plasma (200 μl) was added ice cold methanol (1.5 mL) and the resulting suspension centrifuged (14000 g; 4° C.; 3 min). The supernatant was then decanted and evaporated to dryness on a rotary evaporator (bath temperature, 40° C.), then resuspended in HPLC mobile phase (Solvent A: acetonitrile/water/ethanol/acetic acid/1.0 M ammonium acetate/0.1 M sodium phosphate [800/127/68/2/3/10]; 1.1 mL). Samples were filtered through a hydrophilic syringe filter (0.2 μm filter; Millex PTFE filter, Millipore, Mass., USA) and the sample (˜1 mL) then injected via a 1 mL sample loop onto the HPLC for analysis. Tissues were homogenized in ice-cold methanol (1.5 mL) using an Ultra-Turrax T-25 homogenizer (IKA Werke GmbH and Co. KG, Staufen, Germany) and subsequently treated as per plasma samples.
(§3) Samples were analyzed on an Agilent 1100 series HPLC system (Agilent Technologies, Santa Clara, Calif., USA), configured as described above, using the method of Leyton J, Smith G, Zhao Y, et al. [18F]fluoromethyl-[1, 2-2H4]-choline: a novel radiotracer for imaging choline metabolism in tumors by positron emission tomography. Cancer Res. 2009; 69:7721-7728. A μBondapak C18 HPLC column (Waters, Milford, Mass., USA; […]), stationary phase and a mobile phase comprising of Solvent A (vide supra) and Solvent B (acetonitrile/water/ethanol/acetic acid/1.0 M ammonium acetate/0.1 M sodium phosphate (400/400/68/44/88/10)), delivered at a flow rate of 3 mL/min were used for analyte separation. The gradient was set as follows: 0% B for 5 min; 0% to 100% B in 10 min; 100% B for 0.5 min; 100% to 0% B in 2 min; 0% B for 2.5 min.
(§4) A 2-tissue irreversible compartmental model was employed to fit the TACs, as has been previously established for ^11C-choline (Kenny L M, Contractor K B, Hinz R, et al. Reproducibility of [11C]choline-positron emission tomography and effect of trastuzumab. Clin Cancer Res. Aug. 15 2010; 16(16):4236-4245; and Sutinen E, Nurmi M, Roivainen A, et al. Kinetics of [(11)C]choline uptake in prostate cancer: a PET study. Eur J Nucl Med Mol. Imaging. March 2004; 31(3):317-324). An estimate of the whole blood TAC (wbTAC(t)) was derived from the PET image itself, as described above. […] Therefore it was fitted with a sum of 3 exponentials from the peak on and the fitted function was used as input function in the kinetic modeling (after metabolite correction, see below). […] The pf values were fitted to a sum of two exponentials with the constraint pf(t=0)=1 to obtain the function pf(t).

HCT116 tumors [2] = details: mouse, in vivo
Experimental: as §1, §2, §3
^11C-choline, ^11C-D4-choline and ^18F-D4-choline metabolism were measured in HCT116 tumors (FIG. 22).

HCT116 tumors [3] = details: HCT116 tumors, dynamic PET
Experimental: Dynamic ^11C-choline, ^11C-D4-choline and ^18F-D4-choline imaging scans were carried out on a dedicated small animal PET scanner (Siemens Inveon PET module, Siemens Medical Solutions USA, Inc., Malvem, Pa., USA) following a bolus i.v. injection in tumor-bearing mice of either ˜3.7 MBq for ^18F studies, or ˜18.5 MBq for ^11C. Dynamic scans were acquired in list mode format over 60 min. The acquired data were then sorted into 0.5 mm sinogram bins and 19 time frames for image reconstruction (4×15 s, 4×60 s, and 11×300 s), which was done by filtered back projection. For input function analysis, data were sorted into 25 time frames for image reconstruction (8×5 s, 1×20 s, 4×40 s, 1×80 s, and 11×300 s). The Siemens Inveon Research Workplace software was used for visualization of radiotracer uptake in the tumor; 30 to 60 min cumulative images of the dynamic data were employed to define 3-dimensional (3D) regions of interest (ROIs). Arterial input function was estimated as follows: a single voxel 3D ROI was manually drawn in the center of the heart cavity using 2 to 5 min cumulative images. Care was taken to minimize ROI overlap with the myocardium. The count densities were averaged for all ROIs at each time point to obtain a time versus radioactivity curve (TAC). Tumor TACs were normalized to injected dose, measured by a VDC-304 dose calibrator (Veenstra Instruments, Joure, The Netherlands), and expressed as percentage injected dose per mL tissue. The area under the TAC, calculated as the integral of % ID/mL from 0-60 min, and the normalized uptake of radiotracer at 60 min (% ID/mL60) were also used for comparisons.
as §4, with “pf(t). The parent whole blood TAC wbTACPAR(t) was then computed by multiplying wbTAC(t) and pf(t) and used as input function to estimate the parameters K1 (mL/cm^3/min), k2 (1/min), k3 (1/min) and Vb (unitless). The steady state net irreversible uptake rate constant Ki (mL/cm^3/min) was calculated from the estimated microparameters as K1k3/(k2+k3).” for “pf(t).”

[4] = mouse, in vivo; remark: listed apart in the source
Experimental: ^11C-choline, ^11C-D4-choline (˜18.5 MBq) and ^18F-D4-choline (˜3.7 MBq) were each injected via the tail vein of anaesthetized BALB/c nude mice. The mice were maintained under anesthesia and sacrificed by exsanguination via cardiac puncture at 2, 15, 30 or 60 min post radiotracer injection to obtain blood, plasma, heart, lung, liver, kidney and muscle. Tissue radioactivity was determined on a gamma counter (Cobra II Auto-Gamma counter, Packard Biosciences Co, Pangbourne, UK) and decay corrected. Data were expressed as percent injected dose per gram of tissue.
Time course biodistribution was performed in non-tumor-bearing male nude mice with ^11C-choline, ^11C-D4-choline and ^18F-D4-choline tracers.

[5] = test system: human melanoma (A375), prostate (PC3-M) and colon (HCT116) cancer cell lines; test: In vitro 18F-D4-choline uptake in cancer cell lines; format: cell-based; details: hemicholinium-3 5 mM, 18F-D4-choline uptake, all three cell lines
Experimental: Uptake was measured in vehicle-treated (closed symbols) and hemicholinium-3-treated cells (5 mM; open symbols). Mean values+SEM are shown (n=3). Insert: representative western blot of choline kinase-α expression in the three cell lines. Actin was used as a loading control. Abbreviations: CKα, choline kinase alpha.
Cells (5×10^5) were plated into 6-well plates the night prior to analysis. On the day of the experiment, fresh growth medium, containing 40 μCi ^18F-D4-choline, was added to individual wells. Cell uptake was measured following incubation at 37° C. in a humidified atmosphere of 5% CO2 for 60 min. Plates were subsequently placed on ice, washed 3 times with ice-cold PBS and lysed in RIPA buffer (Thermo Fisher Scientific Inc., Rockford, Ill., USA; 1 mL, 10 min). […] Aliquots were snap-frozen and used for protein determination following radioactive decay using a BCA 96-well plate assay (Thermo Fisher Scientific Inc., Rockford, Ill., USA). Data were expressed as percent of total radioactivity per mg protein. For hemicholinium-3 treatment (5 mM; Sigma-Aldrich), cells were incubated with the compound 30 min prior to addition of radioactivity and for the duration of the uptake time course. […]

Compound	liver radioactivity as betaine ([1]; BALB/c nude, 2 min) [%]	plasma radioactivity in the form of betaine ([1]; BALB/c nude, 2 min) [%]	plasma radioactivity in the form of betaine ([1]; BALB/c nude, 15 min) [%]	tumor betaine-to-phosphocholine metabolite ratio increase compared to 18F-D4-choline (HCT116 tumors [2]; BALB/c nude) [%]	increase in the ratio of betaine:phophocholine in comparison to 18F-D4-choline (HCT116 tumors [2]; BALB/c nude, 15 min) [%]	tumor radioactivity corresponding to phosphocholine (HCT116 tumors [2]; BALB/c nude, 15 min) [%]	increase in the ratio of betaine:phophocholine in comparison to 18F-D4-choline (HCT116 tumors [2]; BALB/c nude, 60 min) [%]	tumor betaine radioactivity (HCT116 tumors [2]; BALB/c nude, 60 min) [%]	tumor tracer kinetics between 30 and 60 min (HCT116 tumors [3])	increase in kidney retention compared to 11C-choline [4] [fold]	urinary excretion [4]	liver radioactivity as betaine [1] [%]	tumor betaine-to-phosphocholine metabolite ratio increase compared to 18F-D4-choline (HCT116 tumors [2]) [%]	tumor radioactivity corresponding to phosphocholine (HCT116 tumors [2]) [%]	decrease in intracellular tracer radioactivity [5] [%]
C[N+](C)([11CH3])CCO [^11C-choline, reference compound]	49.2±7.7	12.1±2.6	78.6±4.4	388	388	30.5±4.0	230	28.1±2.9	gradual accumulation	–	–	–	–	–	–
[2H]C([2H])(O)C([2H])([2H])[N+](C)(C)[11CH3] [^11C-D4-choline, ^11C-[1,2-^2H4]choline]	–	–	–	–	–	–	–	–	Slow wash-out of activity	1.8	trend towards increased urinary excretion	24.5±2.1	259	43.8±1.5	–
C[N+]1(C)CCOC(O)(c2ccc(-c3ccc(C4(O)C[N+](C)(C)CCO4)cc3)cc2)C1.[Br-].[Br-] (stereo not shown) [hemicholinium-3, reference compound]	–	–	–	–	–	–	–	–	–	–	–	–	–	–	> 90
